Experimental data taken from patent US20070219159A1, “CYCLODEXTRIN COMPOSITIONS AND METHODS OF TREATING VIRAL INFECTIONS” (priority 2002, published 2007).
Like-named read-outs stand apart in the source and are kept apart here.

Columns and labels:
West Nile = experiment: In vitro antiviral screening (Table 1), West Nile
HSV-1 strain KOS1.1 = experiment: CPE reduction assay in Vero cells, HSV-1; type: cell-based; conditions: HSV-1; final concentrations up to 8 mg/ml
HSV-1 = conditions: in general 1000-fold less drug than Examples 1-6 and 10
HSV-2 = conditions: in general 1000-fold less drug than Examples 1-6 and 10
HCV = experiment: In vitro anti-HCV assay in HCV RNA-replicating cell line AVA5; type: cell-based; conditions: HCV
Method: (§1) The antiviral activity of test compounds were assayed in the stably HCV RNA-replicating cell line. AVA5, derived by transfection of the human hepatoblastoma cell line, Huh^7 (Blight et al., 2000). Experimental drugs were added to dividing cultures once daily for three days. Media was changed with each addition of compound. Cultures generally started the assays at 50% confluence and reached confluence during the last day of treatment. HCV RNA and cellular β-actin RNA levels were assessed 24 hours after the last dose of compound using dot blot hybridization. Assays were conducted using a single dose of test compound (in triplicate cultures).
(§2) Both HCV and β-actin RNA levels in the treated cultures were expressed as a percentage of the mean levels of RNA detected in untreated cultures. β-actin RNA levels were used both as a measure of toxicity, and to normalize the amount of cellular RNA in each sample. A level of 30% or less HCV RNA (relative to control cultures) was considered to be a positive antiviral effect, and a level of 50% or less β-actin RNA (relative to control cultures) is considered to be a cytotoxic effect.
(§3) Dividing cultures of AVAB cells were treated once daily for three days (media was changed with each addition of compound) with 4 concentrations of test compounds (3 cultures per concentration). A total of 6 untreated control cultures, and triplicate cultures treated with 10, 3, and 1 IU/ml α-interferon (active antiviral with no cytotoxicity), and 100, 10, and 1 μM ribavir ([…]) served as controls. HCV RNA and cellular β-actin FNA levels were assessed 24 hours after the last dose of compound using dot blot hybridization. β-actin RNA levels were used to normalize the amount of cellular RNA in each sample.
(§4) Toxicity analyses were performed on separate plates from those used for the antiviral assays. Cells for the toxicity analyses were cultured and treated with test compounds with the same schedule and under identical culture conditions used for the antiviral evaluations. Each compound was tested at 4 concentrations, each in triplicate cultures. Uptake of neutral red dye was used to determine the relative level of toxicity 24 hours following the last treatment. The absorbance of internalized dye at […] (A510) was used for the quantitative analysis. Values in test cultures were compared to 9 cultures of untreated cells maintained on the same plate as the test cultures.
(§5) Assays similar to those described above were conducted.

HSV-2 strain MS = experiment: CPE reduction assay in Vero cells, HSV-2; type: cell-based; conditions: HSV-2; final concentrations up to 8 mg/ml
[1] = In vitro anti-HCV assay in HCV RNA-replicating cell line AVA5; type: cell-based; conditions: human, AVA5 cells (HCV RNA-replicating Huh7 line); toxicity control, no antiviral activity; read-out: approximate CC90
Method: as §1, §2, §3, §4, §5

Vero cells = conditions: 48 hours exposure; extrapolated from cell killing graph (FIG. 5)
[2] = tested on: vaccinia Western Reserve strain (WR); type: cell-based
[3] = HSV-infected cells; cited from earlier work

OC[C@H]1O[C@@H]2O[C@H]3[C@H](O)[C@@H](O)[C@@H](O[C@H]4[C@H](O)[C@@H](O)[C@@H](O[C@H]5[C@H](O)[C@@H](O)[C@@H](O[C@H]6[C@H](O)[C@@H](O)[C@@H](O[C@H]7[C@H](O)[C@@H](O)[C@@H](O[C@H]1[C@H](O)[C@H]2O)O[C@@H]7CO)O[C@@H]6CO)O[C@@H]5CO)O[C@@H]4CO)O[C@@H]3CO [ACD, α-cyclodextrin]
SI = CC50/EC50 (MCMV): 0 | SI = CC50/EC50 (Yellow fever): 0 | SI = CC50/EC50 (West Nile): 0 | SI = CC50/EC50 (EBV): >1.5 | SI = CC50/EC50 (Ad): 0 | SI = CC50/EC50 (Rhino): 0 | SI = CC50/EC50 (Vaccinia): 0 | SI = CC50/EC50 (Cowpox): 0 | SI = CC50/EC50 (Flu B): 0 | SI = CC50/EC50 (VZV): 0 | SI = CC50/EC50 (Pichinde): 0 | SI = CC50/EC50 (Resp syncytial): 0 | SI = CC50/EC50 (VEE): 0 | antiviral activity in infected Vero cells (HSV-1 strain KOS1.1): no significant antiviral activity | SI = CC50/EC50 (HHV-7): 0 | SI = CC50/EC50 (MV): 0 | SI = CC50/EC50 (HSV-1): 0 | SI = CC50/EC50 (RSV): 0 | SI = CC50/EC50 (HSV-2): 0 | SI = CC50/EC50 (HHV-6): 0 | SI = CC50/EC50 (Flu A): 0 | S.I. for HCV (HCV): 0.72 | SI = CC50/EC50 (PIV): 0 | SI = CC50/EC50 (HRV): 0 | antiviral activity in infected Vero cells (HSV-2 strain MS): no significant antiviral activity | SI = CC50/EC50 (HCMV): 0 | SI = CC50/EC50 (Measles): 0 | SI = CC50/EC50 (Punta Toro): 0

NC(=O)c1ncn([C@@H]2O[C@H](CO)[C@@H](O)[C@H]2O)n1 [ribavirin, reference compound]
CC90 at 3 days [1]: ~100 µM

methyl-β-cyclodextrin [MBCD]
SI = CC50/EC50 (West Nile): 0 (?) | SI = CC50/EC50 (Pichinde): 0 | CC50 at 48 hours for Vero cells (Vero cells): approximately 5.5 mg/ml | SI = CC50/EC50 (VEE): 0 | SI = CC50/EC50 (MV): 0 | anti-vaccinia virus activity (cytopathic effect versus untreated wells) ([2]; MBCD 4 to 4.5 mg/ml, β-CD 7.2 mg/ml, pre- and post-infection, 48 hours): much fewer and smaller areas of cytopathic effect | concentration at which anti-vaccinia virus activity was observed ([2]; flat portion of the cell killing curve): < 4.5 mg/mL | SI = CC50/EC50 (Flu A; Flu A): 0 | S.I. for HCV (HCV): 1.69 | SI = CC50/EC50 (Punta Toro; Punta Toro): 0

penciclovir triphosphate
intracellular half life [3]: 12 h
